Patent publication US9597407B2, “Targeted antimicrobial moieties” (C3 Jian, Inc., priority 2009, dated 2017)
≈ marks a conversion by molar mass, not a printed value. Bridge positions count the residues as written; N and C are the ends. Square brackets hold non-standard residues; d marks the D form. Peptide text beside a SMILES is read from it. I, II: the chains in the order shown. Aoc = NCCCCCCCC(=O)O

Experiments:
[1] = tested on: S. mutans; format: cell-based, Streptococcus mutans; details: average MIC with standard deviation, n = 10 assays
Protocol: (§1) The active AMPs, STAMPs and the like can be identified and/or validated using an in vitro screening assay. Indeed, in many instances the AMPs and/or STAMPS described herein will be used in vitro as preservatives, topical antimicrobial treatments, and the like.
(§2) Typically, the in vitro antimicrobial activity of antimicrobial agents is tested using standard NCCLS bacterial inhibition assays, or MIC tests (see, National Committee on Clinical Laboratory Standards “Performance Standards for Antimicrobial Susceptibility Testing,” NCCLS Document M100-S5 Vol. 14, No. 16, December 1994; “Methods for dilution antimicrobial susceptibility test for bacteria that grow aerobically-Third Edition,” Approved Standard M7-A3, National Committee for Clinical Standards, Villanova, Pa.).
(§3) Briefly, ˜1×10^5 cfu/mL bacteria were diluted in TH (S. mutans), or Mueller-Hinton (MH) broth (all other organisms) and distributed to 96-well plates. Serially-diluted (2-fold) peptides were then added and the plates incubated at 37° C. for 18-24 h. […] All experiments were conducted 10 times.

[2] = tested on: P. aeruginosa; details: average MIC with standard deviation, n = 10 assays
Protocol: (§4) The active AMPs, STAMPs and the like can be identified and/or validated using an in vitro screening assay.
as §3, with “Peptides were evaluated for basic antimicrobial activity by broth microdilution, as described previously (Eckert et al. (2006) Antimicrob Agents Chemother., 50: 3651-3657; Eckert et al. (2006) Antimicrob Agents Chemother., 50: 1480-1488). Briefly,” for “Briefly,”

[3] = tested on: S. epidermidis; details: average MIC with standard deviation, n = 10 assays
Protocol: as §4
as §3, with “Peptides were evaluated for basic antimicrobial activity by broth microdilution, as described previously (Eckert et al. (2006) Antimicrob Agents Chemother., 50: 3651-3657; Eckert et al. (2006) Antimicrob Agents Chemother., 50: 1480-1488). Briefly,” for “Briefly,”

[4] = tested on: E. coli; format: cell-based, Escherichia coli; details: average MIC with standard deviation, n = 10 assays
Protocol: as §1, §2, §3

[5] = tested on: Klebsiella pneumoniae KAY 2026; format: cell-based; details: K. pneumoniae; average MIC with standard deviation, n = 10 assays
Protocol: (§5) Streptococcus mutans JM11 (spectinomycin resistant, UA140 background) was grown in Todd-Hewitt (TH) broth under anaerobic conditions (80% N2, 15% CO2, 5% H2) at 37° C. Merritt et al. (2005) J Microbiol Meth., 61: 161-170. All bacteria were grown overnight to an OD600 of 0.8-1.0 prior to appropriate dilution and antimicrobial testing.
as §3

[6] = tested on: Staphylococcus aureus Newmann; format: cell-based; details: S. aureus; average MIC with standard deviation, n = 10 assays
Protocol: as §5, §3

[7] = tested on: S. mutans; assay: Post-antibiotic effect assay, monoculture growth after 10 min treatment; format: cell-based, Streptococcus mutans; details: peptide 10 min, then fresh medium
Protocol: The activity and selectivity of MH-STAMPs after a 10 min incubation was determined by growth retardation experiments against targeted and untargeted bacteria in monocultures, as described previously (Id.). Cells from overnight cultures were diluted to ˜5×10^6 cfu/mL in MH (or TH with 1% sucrose for S. mutans), normalized by OD600 0.05-0.1 and seeded to 96-well plates. Cultures were then grown under the appropriate conditions for 2 h (3 h for S. mutans) prior to the addition of peptides for 10 min. Plates were then centrifuged at 3000×g for 5 min, the supernatants discarded, fresh medium returned (MH or TH without sucrose for S. mutans), and incubation resumed. Bacterial growth after treatment was then monitored over time by OD600.
MH-STAMP antimicrobial kinetics was ascertained utilizing a variation of the classical post-antibiotic effect assay, which measures the ability of an agent to affect an organism's growth after a short exposure period. Monocultures of MH-STAMP-targeted and untargeted organisms were exposed to M8(KH)-20, M8(BL)-20, BL(KH)-20, or unmodified BD2.20, then allowed to recover. […] Furthermore, replacement of the targeting region with a non-binding peptide abolishes specific activity.

[8] = tested on: S. mutans; assay: Microbial population shift assay, mixed planktonic culture; format: cell-based, Streptococcus mutans; details: 10 μM peptide, 24 h, detection limit 200 cfu/mL
Protocol: (§6) Peptide (10 μM) or mock-treatment (1×PBS) was then added and samples were incubated at 37° C. for 24 h under anaerobic conditions (80% N2, 15% CO2, 5% H2). […] Plates were then incubated 37° C. under aerobic conditions (TH plates were incubated anaerobically) and colonies counted after 24 h to determine survivors. […] Gram stains and direct microscopic observation (from select isolated colonies) were undertaken to confirm species identity (data not shown). The detection limit of the assay was 200 cfu/mL.
(§7) We hypothesized that potential MH-STAMP dual-functionality could affect a particular set of bacteria within a mixed population, thereby promoting the outgrowth of non-targeted organisms and “shifting” the constituent makeup. To examine this possibility, defined mixed populations of planktonic cells were treated continuously and the make-up of the community examined after 24 h.

[9] = tested on: P. aeruginosa; assay: as above; format: cell-based, Pseudomonas aeruginosa; details: 10 μM peptide, 24 h, detection limit 200 cfu/mL
Protocol: as §6, §7

[10] = tested on: E. coli; assay: as above; format: cell-based, Escherichia coli; details: 10 μM peptide, 24 h, detection limit 200 cfu/mL
Protocol: as §6, §7

[11] = tested on: S. epidermidis; assay: as above; format: cell-based, Staphylococcus epidermidis; details: 10 μM peptide, 24 h, detection limit 200 cfu/mL
Protocol: as §6, §7

[12] = tested on: S. mutans UA140 biofilms; assay: Photodynamic antimicrobial assay against single-species biofilms; format: cell-based, Streptococcus mutans; details: 5 μM, no light
Protocol: To evaluate C16-RB against monoculture biofilms, S. mutans UA140 was grown overnight in TH prior to inoculation for biofilm formation. For biofilms, 1:5000 dilution of overnight culture was made into TH with 1% sucrose in 2 mL centrifuge tubes (200 μL volume) and grown 24 h under anaerobic conditions. After incubation, biofilms were treated for 5 min with 5 or 25 μM C16-RB or 5 μM RB in 1×PBS, or PBS alone, followed by removal of supernatant and exposure to 5 min blue light (emission 400-550 nm, power 400 mW/cm^2) from an Astralis 7 (Ivoclar Vivodent, Austria) handheld LED commonly used as a dental curing light. The light source was suspended 4 cm from the tube bottom (even with the mouth of the tube). A duplicate set of samples were left covered to serve as dark controls. After treatment, biofilms were mechanically disrupted and plated to determine cfu/mL.
After synthesis, the basic photosensitization potential of C16-RB was assessed by challenging mature single-species S. mutans biofilms (grown 24 h) with C16-RB or unmodified RB, followed by blue emission from a dental curing light.

[13] = tested on: S. mutans JM11 and non-cariogenic oral streptococci in mixed biofilms; assay: Selective photodynamic assay against multispecies biofilms; format: cell-based, Streptococcus mutans; details: mixed biofilm, blue light, plus potassium gluconate
Protocol: To gauge C16-RB selectivity for S. mutans, similar assays were conducted against multispecies biofilms. Mixed biofilms were seeded by diluting (1:5000) a mixture of equal parts S. oralis, S. gordonii, S. mitis, S. sanguinis, S. salivarius, and S. mutans JM11 (made from overnight cultures) into TH with 1% sucrose, 1% glucose, and 1% mannose. Biofilms were incubated and treated as described above with the addition of vitamin C or potassium gluconate. After the addition of agent and 5 min incubation, biofilms were washed 1× with 1×PBS prior to light exposure. After PDT and biofilm disruption, survivors were plated on TH, and TH supplemented with 800 μg/mL spectinomycin, which allowed for quantitation of surviving total oral streptococci and surviving S. mutans, respectively.
C16-RB was next evaluated for selectivity in mixed cultures containing S. mutans and non-cariogenic oral streptococci that compete for the same niche on the tooth surface. We utilized mixed biofilms of S. mutans transformed with spectinomycin resistance (strain JM11, Merritt, et al., 2005), plus S. oxalis, S. gordonii, S. mitis, S. sanguinis, and S. salivarius. The mixed cultures were grown 24 and then treated with RB or C16-RB as indicated, plus potassium gluconate to minimize killing of untargeted bacteria by reducing the superoxide-producing activity of the free C16-RB not bound to S. mutans. […]

[14] = tested on: BHK-21 fibroblasts; assay: Cytotoxicity, Promega CellTiterGlo assay; format: cell-based, hamster; details: BHK cells
Protocol: Streptococcus oralis ATCC 10557, Streptococcus gordonii (Challis), Streptococcus sanguinis (NY101), Streptococcus mitis ATCC 903, Streptococcus salivarius ATCC 13419 and S. mutans wild-type UA140 and JM11 (spectinomycin-resistant) strains were grown in Todd-Hewitt (TH) broth 37° C. in an anaerobic atmosphere of 80% N2, 10% CO2, and 10% H2. BHK-21 (ATCC CRL-10) fibroblasts were propagated in DMEM with 10% FBS, 1 mM sodium pyruvate, 100 units/mL penicillin G, and 100 μg/mL streptomycin at 37° C. with 5% CO2. Cells were detached with 0.25% trypsin and subcultured as recommended by the supplier.
The effect of RB and C16-RB on human fibroblasts was ascertained by utilizing the Promega CellTiterGlo assay, as described by the manufacturer. Briefly, fibroblasts were grown to confluence, detached, and seeded to ˜5,000 cells per well in a 96-well opaque walled, clear bottom 96-well plate (Nunc International). For long-term dark toxicity, cells were allowed to attach to for 18 h before the culture medium was replaced with medium plus serially-diluted RB or C16-RB (200 μM to 390 nM) or medium alone. After 18-24 h, equal volume Cell Titer Glo reagent was added to each well and mixed. Luciferace activity was then quantified to measure cell viability (Varian Fluorometer in Biolumenescence mode). […] After exposure, cultures were disrupted with Cell Titer Glo and luciferase activity quantitated as above.

Row | Compound | MIC [1] [µM] | MIC [2] [µM] | MIC [3] [µM] | MIC [4] [µM] | MIC [5] [µM] | MIC [6] [µM] | S. mutans growth (OD600) after treatment [7] | surviving S. mutans cfu/mL [8] | surviving P. aeruginosa cfu/mL [9] | surviving E. coli cfu/mL [10] | surviving S. epidermidis cfu/mL [11] | decrease in cfu/mL, dark controls [12] | ratio of surviving S. mutans:non-cariogenic streptococci cfu [13] | IC50 ([14]; 5 min dark) [µM] | photo-associated (light-dependent) toxicity ([14]; blue light exposure)
1 | CC[C@H](C)[C@H](NC(=O)[C@H](Cc1ccccc1)NC(=O)CCCCCCCNC(=O)[C@H](CCCCNC(=O)CNC(=O)CNC(=O)CNC(=O)[C@H](C)NC(=O)[C@H](CCC(=O)O)NC(=O)[C@H](CC(N)=O)NC(=O)[C@H](C)NC(=O)[C@H](C)NC(=O)[C@@H](N)CC(=O)O)NC(=O)CNC(=O)CNC(=O)CNC(=O)[C@H](CCCNC(=N)N)NC(=O)[C@H](CC(N)=O)NC(=O)[C@H](CC(C)C)NC(=O)[C@H](Cc1ccccc1)NC(=O)[C@H](CCCNC(=N)N)NC(=O)[C@H](Cc1ccccc1)NC(=O)[C@H](Cc1ccccc1)NC(=O)[C@@H](NC(C)=O)[C@@H](C)O)C(=O)N[C@@H](CCCNC(=N)N)C(=O)N[C@@H](CCCCN)C(=O)N[C@@H](Cc1ccccc1)C(=O)N[C@@H](CC(C)C)C(=O)N[C@@H](CCCCN)C(=O)N[C@@H](CCCCN)C(=O)N[C@@H](Cc1c[nH]c2ccccc12)C(=O)N[C@@H](CC(C)C)C(=O)N[C@@H](CC(C)C)C(N)=O [M8(BL)-20] (I: Ac-TFFRFLNRGGGK[Aoc]FIRKFLKKWLL-NH2 / II: H-DAANEAGGG; amide I:12-II:C) | 6.25 (≈ 23.7 µg/mL) | 50 (≈ 190 µg/mL) | 6.25 (≈ 23.7 µg/mL) | 5.97 ± 0.94 (≈ 22.7 µg/mL) | 6.88 ± 1.98 (≈ 26.1 µg/mL) | 18.05 ± 6.58 (≈ 68.6 µg/mL) | effectively retarded | greatly reduced compared to input cfu/mL | not affected or affected to a lesser extent | not affected or affected to a lesser extent | not affected or affected to a lesser extent | – | – | – | –
2 | O=C1OC2(c3cc(I)c(O)c(I)c3Oc3c2cc(I)c(O)c3I)c2c(Cl)c(Cl)c(Cl)c(Cl)c21 [RB, rose bengal] | – | – | – | – | – | – | – | – | – | – | – | appreciable decreases in cfu/mL were not observed | ~1 | > 100 | light-dependent toxicity was observed
